# Measured values as given in patent publication US9029337B2, “Modulation of factor 7 expression” (Isis Pharmaceuticals, Inc., priority 2007, dated 2015).
# Strand notation (5' to 3'): a small letter for the sugar, then the base; units joined by * are phosphorothioate-linked, units joined directly phosphodiester-linked; [ ] holds rarer units or linkages, { } end groups; capitals alone tell only the bases. e = 2'-O-(2-methoxyethyl) (MOE); [5mC] = 5-methylcytosine; d = 2'-deoxy (DNA)
# Tests used:
# human Factor 7 mRNA [1] = assay: Dose-dependent antisense inhibition of human Factor 7 in HepB3 cells, lipofectin; assay type: cell-based; conditions: for percent inhibition of Factor 7: approximately 16 hours; for percent inhibition of Factor 7 mRNA, relative to untreated control cells: HepB3 cells, approx. 16 hours (Table 14)
# Description: Cells were plated at a density of 4,000 cells per well and treated with lipofectin reagent with 3.125 nM, 6.25 nM, 12.5 nM, 25 nM, 50 nM, and 100 nM concentrations of antisense oligonucleotide, as indicated in Table 3. After a treatment period of approximately 16 hours, RNA was isolated from the cells and Factor 7 mRNA levels were measured by real-time RT-PCR, as described herein. Human Factor 7 primer probe set RTS 2927 (forward sequence: […], incorporated herein as SEQ ID NO: 164; reverse sequence: […], incorporated herein as SEQ ID NO: 165; probe sequence: TGGGTGGTCTCCGCGGCCX, incorporated herein as SEQ ID NO: 166) was used to measure mRNA levels. Factor 7 mRNA levels were adjusted according to total RNA content as measured by RIBOGREEN®. Results are presented as percent inhibition of Factor 7, relative to untreated control cells.
# Cells were plated at a density of 4,000 cells per well and transfected using lipofectin reagent with 6.25 nM, 12.5 nM, 25.0 nM, 50.0 nM, and 100.0 nM concentrations of antisense oligonucleotide, as indicated in Table 7. After a treatment period of approximately 16 hours, RNA was isolated from the cells and Factor 7 mRNA levels were measured by real-time RT-PCR, as described herein. Human Factor 7 primer probe set RTS 2927 was used to measure mRNA levels. Factor 7 mRNA levels were adjusted according to total RNA content as measured by RIBOGREEN®. Results are presented as percent inhibition of Factor 7, relative to untreated control cells.
# Cells were plated at a density of 4,000 cells per well and transfected using lipofectin reagent with 3.125 nM, 6.25 nM, 12.5 nM, 25 nM, 50 nM, and 100 nM concentrations of antisense oligonucleotide, as specified in Table 14. After a treatment period of approximately 16 hours, RNA was isolated from the cells and Factor 7 mRNA levels were measured by quantitative real-time PCR. Human Factor 7 primer probe set RTS 2927 was used to measure mRNA levels. Factor 7 mRNA levels were adjusted according to total RNA content, as measured by RIBOGREEN®. Results are presented as percent inhibition of Factor 7, relative to untreated control cells.
# human Factor 7 mRNA [2] = assay: Antisense inhibition of human Factor 7 mRNA in HepB3 cells, 50 nM antisense oligonucleotide, lipofectin; assay type: cell-based; conditions: for % Inhibition: lipofectin, approximately 24 hours; for % Inhibition of human Factor 7 mRNA levels: gapmers targeted to nucleobases 4868 to 4899 of SEQ ID NO: 1, Table 8
# Summary of the method: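 Readout is percent reduction of Factor 7 message compared with untreated cells, after correction for total RNA content quantified by RIBOGREEN®. Cultures were seeded at 4,000 cells per well and treated for about 24 hours before RNA extraction.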
# [3] = Table 1, 50 nM, relative to untreated control cells
# [4] = 50 nM antisense oligonucleotide, Factor 7 mRNA by real-time RT-PCR (RTS 2927), relative to untreated control
# [5] = oligonucleotides targeted to nucleobases 11830 to 11869 of SEQ ID NO: 1 (Table 9)
substance,measurement,setting,value
407910 (antisense eA*eG*eT*e[5mC]*e[5mC]*dT*dT*dG*d[5mC]*dT*dG*d[5mC]*d[5mC]*dA*dT*e[5mC]*e[5mC]*eG*eA*eG) [compound 407910],percent inhibition of Factor 7,"human Factor 7 mRNA [1]; Table 3, 3.125 nM",31%
same,percent inhibition of Factor 7,"human Factor 7 mRNA [1]; Table 3, 6.25 nM",44%
same,percent inhibition of Factor 7,"human Factor 7 mRNA [1]; Table 3, 12.5 nM",69%
same,percent inhibition of Factor 7,"human Factor 7 mRNA [1]; Table 3, 25.0 nM",68%
same,percent inhibition of Factor 7,"human Factor 7 mRNA [1]; Table 3, 50.0 nM",82%
same,percent inhibition of Factor 7,"human Factor 7 mRNA [1]; Table 3, 100.0 nM",89%
same,% Inhibition,human Factor 7 mRNA [2]; [3],86%
same,% Inhibition,human Factor 7 mRNA [2]; [4],72%
416549 (antisense eG*eA*e[5mC]*eA*eA*dT*dG*dG*dT*d[5mC]*dA*dG*dG*dG*d[5mC]*eT*eG*eG*eT*eT) [compound 416549],percent inhibition of Factor 7,"human Factor 7 mRNA [1]; Table 7, 6.25 nM",38%
same,percent inhibition of Factor 7,"human Factor 7 mRNA [1]; Table 7, 12.5 nM",44%
same,percent inhibition of Factor 7,"human Factor 7 mRNA [1]; Table 7, 25.0 nM",63%
same,percent inhibition of Factor 7,"human Factor 7 mRNA [1]; Table 7, 50.0 nM",73%
same,percent inhibition of Factor 7,"human Factor 7 mRNA [1]; Table 7, 100.0 nM",78%
same,% Inhibition,human Factor 7 mRNA [2]; [4],68%
same,% Inhibition (human Factor 7 mRNA levels),human Factor 7 mRNA [2]; [5],69%
422294 (antisense eG*eA*dG*dT*dT*d[5mC]*dT*dG*d[5mC]*dA*dG*dG*dA*dG*d[5mC]*eG*eG*e[5mC]*e[5mC]*eT) [compound 422294],"percent inhibition of Factor 7 mRNA, relative to untreated control cells",human Factor 7 mRNA [1]; 3.125 nM,9%
same,"percent inhibition of Factor 7 mRNA, relative to untreated control cells",human Factor 7 mRNA [1]; 12.5 nM,32%
same,"percent inhibition of Factor 7 mRNA, relative to untreated control cells",human Factor 7 mRNA [1]; 25 nM,61%
same,"percent inhibition of Factor 7 mRNA, relative to untreated control cells",human Factor 7 mRNA [1]; 50 nM,77%
same,"percent inhibition of Factor 7 mRNA, relative to untreated control cells",human Factor 7 mRNA [1]; 100 nM,84%
same,"percent inhibition of Factor 7 mRNA, relative to untreated control cells",human Factor 7 mRNA [1],21%
same,% Inhibition of human Factor 7 mRNA levels,human Factor 7 mRNA [2],78%
407900 (antisense e[5mC]*e[5mC]*e[5mC]*e[5mC]*eA*d[5mC]*dA*dA*dT*dT*d[5mC]*dG*dG*d[5mC]*d[5mC]*eT*eT*eG*eG*eG) [compound 407900],percent inhibition of Factor 7,"human Factor 7 mRNA [1]; Table 3, 3.125 nM",52%
same,percent inhibition of Factor 7,"human Factor 7 mRNA [1]; Table 3, 6.25 nM",58%
same,percent inhibition of Factor 7,"human Factor 7 mRNA [1]; Table 3, 12.5 nM",80%
same,percent inhibition of Factor 7,"human Factor 7 mRNA [1]; Table 3, 25.0 nM",87%
same,percent inhibition of Factor 7,"human Factor 7 mRNA [1]; Table 3, 50.0 nM",94%
same,percent inhibition of Factor 7,"human Factor 7 mRNA [1]; Table 3, 100.0 nM",91%
same,percent inhibition of Factor 7,"human Factor 7 mRNA [1]; Table 7, 6.25 nM",18%
same,percent inhibition of Factor 7,"human Factor 7 mRNA [1]; Table 7, 12.5 nM",36%
same,percent inhibition of Factor 7,"human Factor 7 mRNA [1]; Table 7, 25.0 nM",61%
same,percent inhibition of Factor 7,"human Factor 7 mRNA [1]; Table 7, 50.0 nM",82%
same,percent inhibition of Factor 7,"human Factor 7 mRNA [1]; Table 7, 100.0 nM",91%
same,% Inhibition,human Factor 7 mRNA [2]; [3],91%
same,% Inhibition,human Factor 7 mRNA [2]; [4],78%
422223 (antisense eG*eA*eG*d[5mC]*d[5mC]*d[5mC]*dG*dA*dG*dT*dT*d[5mC]*dT*dG*d[5mC]*dA*dG*eG*eA*eG) [compound 422223],% Inhibition of human Factor 7 mRNA levels,human Factor 7 mRNA [2],48%
422179 (antisense e[5mC]*eA*e[5mC]*d[5mC]*d[5mC]*dG*d[5mC]*d[5mC]*dG*dG*d[5mC]*dT*d[5mC]*dT*dG*d[5mC]*dT*e[5mC]*eA*eT) [compound 422179],% Inhibition (human Factor 7 mRNA levels),human Factor 7 mRNA [2]; oligonucleotides targeted to nucleobases 13760 to 13789 of SEQ ID NO: 1 (Table 10),43%
407889 (antisense eT*e[5mC]*e[5mC]*eT*eG*dG*dG*dT*dT*dA*d[5mC]*dG*dA*dA*dG*eA*e[5mC]*eT*eG*e[5mC]) [compound 407889],% Inhibition,human Factor 7 mRNA [2]; [3],54%
416451 (antisense eG*e[5mC]*e[5mC]*eA*eT*dG*dG*dA*d[5mC]*dA*d[5mC]*dT*d[5mC]*d[5mC]*d[5mC]*e[5mC]*eT*eT*eT*eG) [compound 416451],% Inhibition,human Factor 7 mRNA [2]; [4],75%
416457 (antisense eG*eG*eA*eT*eG*dA*dT*dG*dA*d[5mC]*d[5mC]*dT*dG*d[5mC]*dG*e[5mC]*e[5mC]*eA*e[5mC]*e[5mC]) [compound 416457],% Inhibition,human Factor 7 mRNA [2]; [4],48%
416559 (antisense eG*e[5mC]*e[5mC]*eA*eT*dT*dT*d[5mC]*dT*dA*dG*dG*dT*d[5mC]*dT*eG*e[5mC]*eA*eG*eG) [compound 416559],% Inhibition,human Factor 7 mRNA [2]; [4],25%
416460 (antisense e[5mC]*eA*e[5mC]*e[5mC]*eA*d[5mC]*dA*dT*dG*dG*dT*d[5mC]*dA*dG*dT*eG*eA*eG*eG*eA) [compound 416460],% Inhibition,human Factor 7 mRNA [2]; [4],49%
422103 (antisense eG*e[5mC]*eT*eG*eA*dG*dG*dA*dG*dA*d[5mC]*dA*dA*dT*dG*eG*eT*e[5mC]*eA*eG) [compound 422103],% Inhibition (human Factor 7 mRNA levels),human Factor 7 mRNA [2]; [5],38%
407915 (antisense eG*eT*eT*eG*e[5mC]*dG*d[5mC]*dA*dG*d[5mC]*d[5mC]*d[5mC]*dT*dG*dG*e[5mC]*e[5mC]*e[5mC]*e[5mC]*eA) [compound 407915],% Inhibition,human Factor 7 mRNA [2]; [3],83%
407620 (antisense eA*eG*eG*eA*e[5mC]*d[5mC]*dT*dG*d[5mC]*d[5mC]*dA*dT*dG*dG*dA*e[5mC]*eA*e[5mC]*eT*e[5mC]) [compound 407620],% Inhibition,human Factor 7 mRNA [2]; [3],79%
